In ChEMBL document CHEMBL1201862, “PubChem BioAssay data set” (2004):
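Five concentrations, 48 hours, 96-well plates. GI50 is the concentration that inhibits growth by half.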 The source made the active and inactive calls. No stated cut-off is given here; in the data, active = GI50 up to about 1.1 µM and inactive = higher.

Key:
Assay in all cases: NCI anticancer screen, dose series, 48 h
KM12 = test system: KM12
Malme-3M = test system: Malme-3M
SR = test system: SR
TK-10 = test system: TK-10
PC-3 = test system: PC-3
U-251 = test system: U-251
Hs-578T = test system: Hs-578T
HT-29 = test system: HT-29
MDA-MB-231 = test system: MDA-MB-231
HCC 2998 = test system: HCC 2998
786-0 = test system: 786-0
EKVX = test system: EKVX
SNB-19 = test system: SNB-19
OVCAR-4 = test system: OVCAR-4
T47D = test system: T47D
BT-549 = test system: BT-549
HOP-62 = test system: HOP-62
UACC-257 = test system: UACC-257
MOLT-4 = test system: MOLT-4
KM-20L2 = test system: KM-20L2

Compound	GI50 (KM12)	GI50 (Malme-3M)	GI50 (SR)	GI50 (TK-10)	GI50 (PC-3)	GI50 (U-251)	GI50 (Hs-578T)	GI50 (HT-29)	GI50 (MDA-MB-231)	GI50 (HCC 2998)	GI50 (786-0)	GI50 (EKVX)	GI50 (SNB-19)	GI50 (OVCAR-4)	GI50 (T47D)	GI50 (BT-549)	GI50 (HOP-62)	GI50 (UACC-257)	GI50 (MOLT-4)	GI50 (KM-20L2)
CN(CCNCc1cn(C)c2c1ccc1ccccc12)CCNCc1cn(C)c2c1ccc1ccccc12	1.51 µM (inactive)	1.87 µM (inactive)	1.04 µM (active)	1.64 µM (inactive)	1.47 µM (inactive)	0.9 µM (active)	1.64 µM (inactive)	1.61 µM (inactive)	1.79 µM (inactive)	0.301 µM (active)	0.881 µM (active)	1.72 µM (inactive)	1.39 µM (inactive)	1.33 µM (inactive)	1.86 µM (inactive)	1.57 µM (inactive)	1.79 µM (inactive)	1.55 µM (inactive)	1.09 µM (active)	
Cc1cc(S(=O)(=O)Nc2nnc3c4ccccc4cnn23)c(S)cc1Cl	31.7 µM (inactive)	> 100 µM (inactive)	> 100 µM (inactive)	> 100 µM (inactive)	> 100 µM (inactive)	29.9 µM (inactive)	40.1 µM (inactive)	> 100 µM (inactive)	> 93.3 µM (inactive)	42.2 µM (inactive)	> 74.3 µM (inactive)	44 µM (inactive)	26.5 µM (inactive)	> 100 µM (inactive)	74.1 µM (inactive)	> 54.5 µM (inactive)	52.8 µM (inactive)	> 100 µM (inactive)	> 100 µM (inactive)	
COC(=O)c1ccc(NC(=O)O/N=C(\Cl)C(C)C)cc1	15.1 µM (inactive)	1.56 µM (inactive)	1.18 µM (inactive)	3.05 µM (inactive)	17.3 µM (inactive)	16.6 µM (inactive)	10.8 µM (inactive)	4.31 µM (inactive)	7.08 µM (inactive)	14.7 µM (inactive)	2.03 µM (inactive)	3.22 µM (inactive)	16.9 µM (inactive)	18.1 µM (inactive)	2 µM (inactive)	2.67 µM (inactive)	18.7 µM (inactive)	15.2 µM (inactive)	1.79 µM (inactive)	
CC1=NN(C(=O)c2ccncc2)C(=O)C1/N=N/c1ccc2ccccc2c1 (stereo unspecified)	17.1 µM (inactive)	> 72.6 µM (inactive)	5.3 µM (inactive)	60.3 µM (inactive)	> 100 µM (inactive)	> 91 µM (inactive)	5.2 µM (inactive)	11.7 µM (inactive)	20.8 µM (inactive)	3.03 µM (inactive)	> 100 µM (inactive)	2.71 µM (inactive)	> 100 µM (inactive)	> 100 µM (inactive)	> 100 µM (inactive)	> 100 µM (inactive)	> 100 µM (inactive)	> 100 µM (inactive)	5.32 µM (inactive)	
CNC(=O)OCC1=C(COC(=O)NC)C(C)N(c2ccccc2)C1 (stereo unspecified)	30.5 µM (inactive)	33.9 µM (inactive)	24.5 µM (inactive)	24.5 µM (inactive)	40.5 µM (inactive)	31.8 µM (inactive)	43.4 µM (inactive)	22.6 µM (inactive)	41.2 µM (inactive)	25.2 µM (inactive)	47.2 µM (inactive)	46.1 µM (inactive)	58.5 µM (inactive)	37.8 µM (inactive)	26.7 µM (inactive)	50.9 µM (inactive)	53.6 µM (inactive)	35.6 µM (inactive)	23 µM (inactive)	
Cc1cc(NS(=O)(=O)c2ccc(NC(=O)c3cccc4c(N)c5ccccc5nc34)cc2)no1	18.9 µM (inactive)	30.9 µM (inactive)		43.1 µM (inactive)		26.6 µM (inactive)		27.9 µM (inactive)			17.9 µM (inactive)	90.8 µM (inactive)	17.4 µM (inactive)	27.3 µM (inactive)			29.6 µM (inactive)		28.9 µM (inactive)	34.1 µM (inactive)
Cc1cccc(/C=N/NC(=S)Nc2ccc(Cl)cc2)n1	0.977 µM (active)	0.665 µM (active)	0.778 µM (active)	11.6 µM (inactive)	1.94 µM (inactive)	2.19 µM (inactive)	2.18 µM (inactive)	1.03 µM (active)	0.897 µM (active)	7.8 µM (inactive)	1.63 µM (inactive)	2.41 µM (inactive)	2.31 µM (inactive)	4.78 µM (inactive)	0.611 µM (active)	7.14 µM (inactive)	1.08 µM (active)	3.13 µM (inactive)	1.17 µM (inactive)	
